Reference: PMC6556873, “Rapid Covalent-Probe Discovery by Electrophile-Fragment Screening” (Journal of the American Chemical Society, 2019)
Read-outs that look alike come from different tables or passages of the source.

Experiments:
BSA = target: T1, BSA (Bos taurus, UniProt P02769); parameters: Intact protein LC/MS covalent labelling, fragments in pools of five, 200 uM each, 4 °C; settings: 24 h, 4 °C, pool of five; 200 µM; covalent
T1 construct: gene ALB

NUDT7 = target: T2, NUDT7 (Homo sapiens, UniProt P0C024); parameters: Intact protein LC/MS covalent labelling, fragments in pools of five, 200 uM each, 4 °C; settings: 24 h, 4 °C, pool of five; 200 µM; covalent
T2 construct: residues 14-235, E. coli, pNIC28-Bsa4, N-terminal His6 tag removed by TEV, construct 26672 Da
T2 sequence (P0C024 14-235): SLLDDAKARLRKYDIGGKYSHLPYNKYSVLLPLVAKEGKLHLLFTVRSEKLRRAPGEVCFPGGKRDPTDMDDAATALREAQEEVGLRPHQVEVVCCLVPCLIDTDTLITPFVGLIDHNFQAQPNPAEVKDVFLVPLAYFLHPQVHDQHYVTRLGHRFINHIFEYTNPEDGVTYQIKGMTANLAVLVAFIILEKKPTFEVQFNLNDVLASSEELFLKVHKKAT

OTUB2 (OTUB2A) = target: T3, OTUB2 (OTUB2A) (Homo sapiens, UniProt Q96DC9); parameters: Intact protein LC/MS covalent labelling, fragments in pools of five, 200 uM each, 4 °C; settings: 24 h, 4 °C, pool of five; 200 µM; covalent
T3 construct: full length residues 1-234, E. coli BL21(DE3)-R3, His tag removed by TEV, construct 27312 Da
T3 sequence (Q96DC9 1-234): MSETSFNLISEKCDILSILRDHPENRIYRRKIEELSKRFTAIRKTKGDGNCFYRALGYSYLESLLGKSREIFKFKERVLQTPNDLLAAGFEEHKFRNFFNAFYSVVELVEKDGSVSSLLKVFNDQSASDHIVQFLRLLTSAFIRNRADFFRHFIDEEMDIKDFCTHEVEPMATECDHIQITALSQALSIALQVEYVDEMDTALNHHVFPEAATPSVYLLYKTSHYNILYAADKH

PCAF = target: T4, PCAF (Homo sapiens, UniProt Q92831); parameters: Intact protein LC/MS covalent labelling, fragments in pools of five, 200 uM each, 4 °C; settings: 24 h, 4 °C, pool of five; 200 µM; covalent
T4 construct: gene KAT2B
T4 sequence (Q92831 whole entry, the tested form may be a part): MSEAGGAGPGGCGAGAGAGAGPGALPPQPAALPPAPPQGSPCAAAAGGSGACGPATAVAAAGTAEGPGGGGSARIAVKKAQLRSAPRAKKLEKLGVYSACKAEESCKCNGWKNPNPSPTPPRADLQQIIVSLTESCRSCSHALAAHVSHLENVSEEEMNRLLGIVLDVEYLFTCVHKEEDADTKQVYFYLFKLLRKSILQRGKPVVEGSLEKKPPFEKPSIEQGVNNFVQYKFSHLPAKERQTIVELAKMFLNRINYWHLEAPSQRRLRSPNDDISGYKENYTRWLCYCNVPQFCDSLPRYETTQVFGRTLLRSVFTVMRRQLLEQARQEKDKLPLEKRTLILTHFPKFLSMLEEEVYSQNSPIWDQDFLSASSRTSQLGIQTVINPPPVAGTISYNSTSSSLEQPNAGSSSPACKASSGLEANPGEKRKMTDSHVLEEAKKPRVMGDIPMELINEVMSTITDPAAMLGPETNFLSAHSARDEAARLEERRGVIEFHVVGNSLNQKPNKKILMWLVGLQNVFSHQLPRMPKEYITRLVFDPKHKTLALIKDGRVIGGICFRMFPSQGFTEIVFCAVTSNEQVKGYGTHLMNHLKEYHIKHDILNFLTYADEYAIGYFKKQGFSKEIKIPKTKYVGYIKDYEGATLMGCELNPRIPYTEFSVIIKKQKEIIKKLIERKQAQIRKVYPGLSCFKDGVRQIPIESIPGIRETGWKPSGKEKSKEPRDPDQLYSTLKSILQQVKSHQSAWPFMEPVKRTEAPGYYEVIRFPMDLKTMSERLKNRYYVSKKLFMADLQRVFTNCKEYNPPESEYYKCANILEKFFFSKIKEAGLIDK

in vitro [1] = test: in vitro; parameters: species or system CCD841, HEK293; settings: human, hb2 cells, read-out: HB-2 Cells Viability (%)
in vitro [2] = test: in vitro; parameters: species or system HB2, HEK293; settings: human, ccd841 cells
in vitro [3] = test: in vitro; parameters: species or system HB2, CCD841; settings: human, hek293 cells

T1 sequence (P02769 whole entry, the tested form may be a part): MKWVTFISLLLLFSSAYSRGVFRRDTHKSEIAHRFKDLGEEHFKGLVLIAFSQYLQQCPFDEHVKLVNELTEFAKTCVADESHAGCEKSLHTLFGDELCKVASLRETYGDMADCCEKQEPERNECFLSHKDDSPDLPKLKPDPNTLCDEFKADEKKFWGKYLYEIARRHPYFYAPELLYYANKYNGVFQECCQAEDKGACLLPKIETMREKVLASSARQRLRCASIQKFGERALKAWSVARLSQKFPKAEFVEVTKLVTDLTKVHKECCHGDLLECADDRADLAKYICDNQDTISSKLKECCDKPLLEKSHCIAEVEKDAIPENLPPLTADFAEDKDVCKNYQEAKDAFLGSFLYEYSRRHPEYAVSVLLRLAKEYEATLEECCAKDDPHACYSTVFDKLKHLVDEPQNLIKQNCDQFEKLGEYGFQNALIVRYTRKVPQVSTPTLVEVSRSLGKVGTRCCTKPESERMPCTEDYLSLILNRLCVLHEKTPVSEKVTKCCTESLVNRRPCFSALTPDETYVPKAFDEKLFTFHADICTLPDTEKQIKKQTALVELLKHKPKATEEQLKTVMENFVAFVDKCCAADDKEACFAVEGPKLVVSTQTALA

| Compound | BSA (BSA) | NUDT7 (NUDT7) | OTUB2 (OTUB2 (OTUB2A)) | PCAF (PCAF) | viability at 48 h, 10 µM (in vitro [1]) | viability at 48 h, 10 µM (in vitro [2]) | viability at 48 h, 10 µM (in vitro [3]) |
| --- | --- | --- | --- | --- | --- | --- | --- |
| C=CC(=O)N1CCN(C)CC1 [PCM-0102634] | 0 | 0 | 0 | 0 | 99.6% | 114% | 131% |
| CN(Cc1cccs1)C(=O)CCl [PCM-0102636] | 0 | 0.17 | 0 | 0 | 11.3% | 57.7% | 7% |
| C=CC(=O)N1CCC(S(=O)(=O)C(C)C)CC1 [PCM-0102637] | 0 | 0 | 0 | 0 | 98.6% | 119% | 102% |
| Cc1cc(N2CCN(C(=O)CCl)CC2)nc(C(C)C)n1 [PCM-0102638] | 0.11 | 0 | 0 | 0 | 97.7% | 107% | 89.8% |
| C=CC(=O)Nc1ccnn1-c1ccccc1C [PCM-0102643] | 0 | 0.12 | 0 | 0 | 87.4% | 88.7% | 64.4% |
| C=CC(=O)NCC1CCN(C)c2ccccc21 (stereo not shown) [PCM-0102644] | 0 | 0 | 0 | 0 | 106% | 98.5% | 73% |
| C=CC(=O)NC1CCOC2(CCS(=O)(=O)C2)C1 (stereo not shown) [PCM-0102645] | 0 | 0 | 0 | 0 | 102% | 115% | 110% |
| C=CC(=O)N(C1CC1)C1CC(=O)NC1=O (stereo not shown) [PCM-0102646] | 0 | 0 | 0 | 0 | 103% | 98.4% | 94.9% |
| C=CC(=O)NCC1CCOCO1 (stereo not shown) [PCM-0102648] | 0.2 | 0 | 0 | 0 | 102% | 104% | 88.8% |
| C=CC(=O)N1CC2CC3CC2C1C3OC (stereo not shown) [PCM-0102649] | 0 | 0 | 0.15 | 0 | 107% | 118% | 117% |
| C=CC(=O)N1CCc2c([nH]c3ccccc23)C1 [PCM-0102650] | 0 | 0.14 | 0 | 0 | 100% | 107% | 85.6% |
| CCNC(=O)NC(=O)CCl [PCM-0102654] | 0 | 0 | 0 | 0 | 90.8% | 92.6% | 82.2% |

Further lines, with some results ahead:

| BSA (BSA) | NUDT7 (NUDT7) | OTUB2 (OTUB2 (OTUB2A)) | PCAF (PCAF) | Compound | viability at 48 h, 10 µM (in vitro [1]) | viability at 48 h, 10 µM (in vitro [2]) | viability at 48 h, 10 µM (in vitro [3]) |
| --- | --- | --- | --- | --- | --- | --- | --- |
| 0 | 0 | 0 | 0 | CCOC(=O)C1CCN(C(=O)CCl)CC1 [PCM-0102656] | 86% | 90.3% | 69.4% |
| 0 | 0.06 | 0.2 | 0 | Cc1c(Cl)cnc(NC(=O)CCl)c1Cl [PCM-0102657] | 101% | 98.2% | 99.6% |
| 0 | 0.39 | 0 | 0 | O=C(CCl)N1N=C(c2ccco2)CC1c1ccsc1 (stereo not shown) [PCM-0102659] | 15.3% | 15.6% | 3.5% |
| 0.21 | 0 | 0.29 | 0 | CC1CCCC(NC(=O)CCl)C1C (stereo not shown) [PCM-0102663] | 98.5% | 104% | 87.3% |
| 0 | 0 | 0 | 0 | CC(C#N)(NC(=O)CCl)C1CC1 (stereo not shown) [PCM-0102664] | 99.7% | 89.6% | 80.8% |
| 0 | 0 | 0.53 | 0 | Cc1cc(NC(=O)CCl)n(-c2ccc(F)cc2)n1 [PCM-0102665] | 57% | 67.6% | 20.6% |
| 0 | 0.08 | 0.18 | 0 | C=CC(=O)Nc1cccc(Br)c1 [PCM-0102667] | 97.1% | 89.4% | 86.4% |
| 0 | 0.14 | 0 | 0 | CN(C(=O)CCl)c1ccc([N+](=O)[O-])cc1 [PCM-0102669] | 12.9% | 17.3% | 10.5% |
| 0 | 0 | 0.48 | 0 | Cl.O=C(CCl)Nc1ccc(N2CCCC2)cc1 [PCM-0102670] | 35% | 41.8% | 30.3% |
| 0 | 0 | 0.35 | 0 | O=C(CCl)NCc1ccco1 [PCM-0102671] | 102% | 86% | 86.2% |
| 0 | 0.1 | 0 | 0 | CN(Cc1ccco1)C(=O)CCl [PCM-0102672] | 51.9% | 78.1% | 49.1% |
| 0 | 0.11 | 0 | 0 | CN(CC(F)(F)F)C(=O)CCl [PCM-0102674] | 101% | 105% | 101% |
| 0 | 0.14 | 0 | 0 | O=C(CCl)N1CCCC(C(F)(F)F)C1 (stereo not shown) [PCM-0102676] | 44.7% | 88.5% | 54.4% |
| 0 | 0 | 0 | 0 | C=CC(=O)N1CC(O)CC1c1ccccc1C(F)(F)F (stereo not shown) [PCM-0102677] | 98.4% | 108% | 109% |
| 0 | 0.45 | 0 | 0 | CN(Cc1cc(Cl)cc(Cl)c1)C(=O)CCl [PCM-0102678] | 8.3% | 22% | 22% |
| 0.1 | 0 | 0.08 | 0 | C=CC(=O)N1Cc2c(OC)ccc(OC)c2C(O)C1 (stereo not shown) [PCM-0102680] | 104% | 135% | 119% |
